Laboratory results as given in patent US6703362B1, “Random peptides that bind to gastro-intestinal tract (GIT) transport receptors and related methods” (Cytogen Corporation, priority 1997, dated 2004).

Key:
[1] = Isoelectric points of synthetic peptides; type: physicochemical
hPEPT1 = target: T1, hPEPT1 (Homo sapiens, UniProt P46059); assay: Phage receptor ELISA on hPEPT1; type: binding; details: for OD, binding to hPEPT1: Table 4, phage panned on hPEPT1; for PEPT1/BSA: ratio of hPEPT1 to BSA binding
T1 construct: 391-571; made in house
T1 sequence (P46059 391-571): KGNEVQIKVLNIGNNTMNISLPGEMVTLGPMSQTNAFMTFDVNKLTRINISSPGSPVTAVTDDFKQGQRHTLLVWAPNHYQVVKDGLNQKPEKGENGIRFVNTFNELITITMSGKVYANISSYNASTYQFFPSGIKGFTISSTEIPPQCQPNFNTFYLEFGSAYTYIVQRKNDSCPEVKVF
Method: (§1) 96 well plates were coated overnight with GIT receptor, BSA and, optionally, IDE (insulin degrading enzyme, an irrelevant His-fusion protein)or hTF. The plates were 5 blocked for one hour with 0.5% BSA-PBS. After clarification, the amplified phage were diluted 1:100 in […] plus 0.05% Tween 20 in PBS and added to the plates. Following incubation of the plates on a rotator for 1 to 2 hours, the plates were washed 5 times with 1% BSA plus 0.05% Tween 20 in PBS. Dilute anti-M13-HRP conjugate (anti-M13 antibody linked to horse radish peroxidase (HRP)) was added to all the wells and the plate was incubated for one hour on a rotator. After the plates were washed 5 times, as described above, TMB substrate was added to the wells. The plates were read at 650 nm absorbance.

BSA = BSA (Bos taurus, UniProt P02769); assay: Phage ELISA on BSA (background control protein); type: binding
Method: as §1

intestinal tissue = assay: Preselected phage libraries, rat closed loop: absorption/internalization to intestinal tissue (hybridization autoradiograph); type: in vivo; details: for binding to the intestine / found in the intestine samples: hPEPT1 pool of phages; for found in the intestinal samples fractions: D2H pool of phages
hSI = target: T2, hSI (Homo sapiens, UniProt P14410); assay: Phage receptor ELISA on hSI; type: binding; details: for OD, binding to hSI: Table 1, phage panned on hSI, absorbance 650 nm; for hSI/BSA: ratio of hSI to BSA binding
T2 construct: made in house
Method: as §1

D2H = target: T3, D2H (Homo sapiens, UniProt Q07837); assay: Phage receptor ELISA on D2H; type: binding; details: Table 3; for D2H/BSA: ratio of D2H to BSA binding; for OD, binding to D2H: two rounds on D2H, third pan on Caco-2 snapwells
T3 construct: 387-685; made in house
T3 sequence (Q07837 387-685): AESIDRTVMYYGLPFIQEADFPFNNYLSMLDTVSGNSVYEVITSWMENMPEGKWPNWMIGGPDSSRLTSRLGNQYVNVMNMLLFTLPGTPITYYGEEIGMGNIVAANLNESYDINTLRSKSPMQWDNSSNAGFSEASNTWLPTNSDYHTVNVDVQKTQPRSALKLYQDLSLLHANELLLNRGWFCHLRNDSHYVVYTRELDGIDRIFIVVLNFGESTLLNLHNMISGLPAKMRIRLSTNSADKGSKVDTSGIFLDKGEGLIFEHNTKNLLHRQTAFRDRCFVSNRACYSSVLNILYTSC
Method: as §1

[2] = tested on: fixed Caco-2 or C2BBe1 cells; assay: ELISA of GST fusion proteins on fixed Caco-2 or C2BBe1 cells; type: binding
Method: Fixed Caco-2, C2BBe1, and A431 cell plates were prepared by growing cells on tissue culture treated microtiter plates. When cells were confluent, plates were fixed with 10% formaldehyde, washed twice with PBS and stored with 0.5%BSA-PBS at −20° C. […] The standard ELISA procedure was followed at this point.
The standard ELISA procedure was modified as follows. GST proteins were diluted to an appropriate concentration in PBS containing lkBSA and 0.05% Tween20 (1%BPT), titered and incubated one hour at room temperature. Following five washes an anti-GST monoclonal antibody was added (Sigma, St. Louis Clone GST-2 diluted 1:10,000 in 1%BPT) and incubated one hour. After five more washes goat anti-mouse IgG2b-HRP was added (Southern Biotechnology Associates Inc., Birmingham, Ala., diluted 1:4000 in 1%BPT) and incubated one hour. After five washes plates were developed with TMB peroxidase substrate (Kirkegard and Perry, Gaithersburg, Md.). All data is presented with background binding subtracted.

fixed Caco-2 cells = assay: Effect of thrombin cleavage on binding of GST-peptide fusions to fixed Caco-2 cells; details: thrombin 18 h at room temperature
Method: Binding of intact and thrombin-cleaved GST-peptide fusions to fixed Caco-2 cells was compared.
Thirty micrograms of each GST-peptide was treated with bovine thrombin (1 μ/ml; 0.4 NIH units; Sigma CN.T9681) for 18 h at room temperature in 2OmM Tris-HCl pH8.0, 150 mM NaCl, 2.5 mM CaCl2. Controls were similarly treated without addition of thrombin. Ten micrograms of each GST-peptide fusion was removed for PAGE analysis, and 10 μg of fusions were added in duplicate to the fixed Caco-2 cells before 5-fold serial dilutions (1% BPT diluent). The fusions were allowed to bind for 1 h at room temperature. Following 6 washes with 1% BPT, binding was assayed by ELISA.

[3] = tested on: P100 membrane fraction derived from Caco-2 cells; assay: GST-PAX2 peptides relative binding to P100 fractions (ratio to GST-HAX42); details: 20 μg/ml GST-peptide; binding to plastic subtracted; GST-HAX42 = 1.00
Method: The peptides and proteins were analyzed by a dansylated peptide ELISA method in which 96 well plates were coated overnight at 4° C. with 100 μl/well coating protein (normally 100 μg/ml P100 membrane fraction) in 0.05M carbonate buffer pH9.6. Nonspecific binding was blocked using 200 μl/well, 2% Marvel/PBS for 2 hours at 37° C. prior to incubation with dansylated peptides. The plates were washed three times with PBS/0.05% Tween 20 and after each subsequent incubation step. […] A buffer blank control was included to ensure that background binding to plastic was not due to the antibodies used in the assay system. […] The plates were then incubated with an anti-mouse X-HRP conjugated antibody (Southern Biotech 1060-05) at a 1:10,000 dilution in blocking solution, 100 μl/well for 1 hour at room temperature. Plates were developed using 75 μl/well Bionostics TMB substrate and incubated for approximately 10 minutes. The developing reaction was stopped using Bionostics Red Stop solution (25 μl/well), and the optical density of the plates was read at 650nm.
After subtraction of the GST-peptide binding to plastic from P100 binding values, the binding of GST-PAX2 peptides were represented as a ratio of GST-HAX42 binding to P100, which was given the arbitrary value of 1.00. The following ratios were determined from binding to P100 of GST-peptides at a peptide concentration of 20 μg/ml. Bold denotes positive binding to the P100 membrane fraction.

[4] = tested on: ZElan024 (P31), ZElan018 (PAX2), ZElan021 (HAX42); assay: Crossreactive binding of GST fusions to dansylated peptides

BSA, sequence (P02769 25-607): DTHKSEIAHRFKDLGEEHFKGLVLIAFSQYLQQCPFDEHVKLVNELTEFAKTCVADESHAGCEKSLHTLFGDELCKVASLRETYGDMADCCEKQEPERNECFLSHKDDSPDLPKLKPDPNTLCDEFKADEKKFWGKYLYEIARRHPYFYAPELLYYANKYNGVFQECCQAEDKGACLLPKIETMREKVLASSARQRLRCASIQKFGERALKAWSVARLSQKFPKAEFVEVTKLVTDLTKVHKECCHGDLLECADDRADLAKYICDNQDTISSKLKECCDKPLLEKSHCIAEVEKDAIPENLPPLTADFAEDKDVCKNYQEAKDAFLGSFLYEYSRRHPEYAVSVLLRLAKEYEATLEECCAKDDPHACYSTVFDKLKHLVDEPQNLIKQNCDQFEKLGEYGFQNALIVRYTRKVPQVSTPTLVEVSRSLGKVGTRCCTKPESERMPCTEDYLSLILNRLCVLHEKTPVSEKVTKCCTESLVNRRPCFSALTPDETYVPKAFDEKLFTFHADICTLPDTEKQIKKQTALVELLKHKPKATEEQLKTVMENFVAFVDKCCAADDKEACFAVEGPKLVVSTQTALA
T2 sequence (P14410 272-667): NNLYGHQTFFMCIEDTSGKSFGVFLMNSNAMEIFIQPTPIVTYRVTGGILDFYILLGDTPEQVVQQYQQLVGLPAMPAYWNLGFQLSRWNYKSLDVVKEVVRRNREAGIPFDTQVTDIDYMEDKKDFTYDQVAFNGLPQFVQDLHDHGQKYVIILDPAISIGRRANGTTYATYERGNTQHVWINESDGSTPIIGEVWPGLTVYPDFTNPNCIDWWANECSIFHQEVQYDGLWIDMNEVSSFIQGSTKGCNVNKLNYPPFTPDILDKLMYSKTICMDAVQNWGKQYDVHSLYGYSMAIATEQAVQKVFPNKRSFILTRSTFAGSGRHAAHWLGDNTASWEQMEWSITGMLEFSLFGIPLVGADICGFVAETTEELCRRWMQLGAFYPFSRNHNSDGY

For “RGSTGTAGGERSGVLNLHTRDNASGSGFKPWYPSNRGHK [Peptide 5PAX5]”, the pI [1] was 11.49, the “OD, binding to hPEPT1” value (hPEPT1) was 0.15 and the PEPT1/BSA (hPEPT1) was 4. For the same substance, the “OD, binding to BSA” value (BSA; Table 4) was 0.036 and the “binding to the intestine / found in the intestine samples” value (“binding to the intestine / found” for short) (intestinal tissue) was “not found in the intestine samples”.

For “RVGQCTDSDVRRPWARSCAHQGCGAGTRNSHGCITRPLRQASAH [Phage SNi10]”, the “found in the intestine samples or fractions” value (intestinal tissue; hSI pool of phages) was “found in the intestine samples or fractions”.

In the case of “RVGQCTDSDVRRPWARSCAHQGCGAGTRNSHGCITRPLRQASAH [SNi10]”, the pI [1] is reported as 10.45, the “OD, binding to hSI” value (hSI) is reported as 0.57 and the hSI/BSA (hSI) is reported as 11. For the same substance, the “OD, binding to BSA” value (BSA; Table 1, phage panned on hSI) was 0.051.

For “RYKHDIGCDAGVDKKSSSVRGGCGAHSSPPRAGRGPRGTMVSRL [DCX8]”, the pI [1] was 11.03, the D2H/BSA (D2H) was 3 and the “OD, binding to D2H” value (D2H) was 0.163. The “OD, binding to BSA” value (BSA; Table 3) was 0.063 and the “found in the intestinal samples fractions” value (intestinal tissue) was “to a much lesser extent”.

With “SARDSGPAEDGSRAVRLNGVENANTRKSSRSNPRGRRHP [Peptide P31]” the pI [1] was 12.26, the “OD, binding to hPEPT1” value (hPEPT1) was 0.807 and the PEPT1/BSA (hPEPT1) was 11. For the same substance, the “OD, binding to BSA” value (BSA; Table 4) was 0.075 and the “binding to the intestine / found” value (intestinal tissue) was “preferential binding”.

With “SPCGGSWGRFMQGGLFGGRTDGCGAHRNRTSASLEPPSSDY [SNi34]” the pI [1] was 8.25, the “OD, binding to hSI” value (hSI) was 0.761 and the hSI/BSA (hSI) was 7. For the same substance, the “OD, binding to BSA” value (BSA; Table 1, phage panned on hSI) was 0.115.

For “SQGSKQCMQYRTGRLTVGSEYGCGMNPARHATPAYPARLLPRYR [DCX11]”, the pI [1] was 10.44, the D2H/BSA (D2H) was 3 and the “OD, binding to D2H” value (D2H) was 0.222. The “OD, binding to BSA” value (BSA; Table 3) was 0.071 and the “found in the intestinal samples fractions” value (intestinal tissue) was “found in the intestinal samples fractions”.

With “STPPSREAYSRPYSVDSDSDTNAKHSSHNRRLRTRSRPN [PAX2]” the pI [1] was 11.26 and the “binding to the intestine / found” value (intestinal tissue) was “not found in the intestine samples”.

In the case of gst-ENANTRKSSRSNPRGRRHP [GST-P31.103], the “binding of truncation to fixed Caco-2 cells relative to full-length fusion” value [2] is reported as “bound almost as well as full-length P31” and the “effect of thrombin cleavage on detection of binding” value (shortened to “effect of thrombin cleavage”) (fixed Caco-2 cells) is reported as “significantly reduced detection of binding”.

With “gst-RVGQCTDSDVRRPWARSCAHQGCGAGTRNSHGCITRPLRQASAH [GST-SNi10]” the “binding to fixed Caco-2 or C2BBe1 cells relative to GST control” value [2] was “bound fixed Caco-2 or C2BBe1 cells” and the “effect of thrombin cleavage” value (fixed Caco-2 cells) was “significantly reduced detection of binding”.

For “gst-SDHALGTNLRSDNAKEPGDYNCCGNGNSTGRKVFNRRRPSAIPT [GST-HAX42]”, the “Value (binding to P100 as ratio of GST-HAX42 binding)” value [3] was 1.00, the “binding to fixed Caco-2 or C2BBe1 cells relative to GST control” value [2] was “weak to moderate binding” and the “crossreactivity to ZElan018 (PAX2) and ZElan021 (HAX42)” value ([4]; 5 μg/ml concentration used in competition assays) was “crossreactivity”.

With gst-SRPYSVDSDSDTNAKHSSHNR [GST-105] the “Value (binding to P100 as ratio of GST-HAX42 binding)” value [3] was −0.08.

For gst-SSHNRRLRTR [GST-114], the “Value (binding to P100 as ratio of GST-HAX42 binding)” value [3] was 0.17.

For gst-STPPSREAYSRPYSVDSDSD [GST-104], the “Value (binding to P100 as ratio of GST-HAX42 binding)” value [3] was 0.01.

With “gst-STPPSREAYSRPYSVDSDSDTNAKHSSHNRRLRTRSRPN [GST-PAX2]” the “Value (binding to P100 as ratio of GST-HAX42 binding)” value [3] was 1.79, the “binding to fixed Caco-2 or C2BBe1 cells relative to GST control” value [2] was “bound fixed Caco-2 or C2BBe1 cells” and the “crossreactive binding to ZElan024 (P31) and ZElan018 (PAX2)” value ([4]; 0.5 μg/ml concentration used in competition assays) was “no crossreactive binding”.

In the case of gst-TNAKHSSHN [GST-113], the “Value (binding to P100 as ratio of GST-HAX42 binding)” value [3] is reported as 0.26.

For gst-TNAKHSSHNRRLRTRSRPN [GST-PAX2.106], the “Value (binding to P100 as ratio of GST-HAX42 binding)” value [3] was 2.71, the “binding of truncation to fixed Caco-2 cells relative to full-length fusion” value [2] was “bound similarly to full-length PAX2” and the “effect of thrombin cleavage” value (fixed Caco-2 cells) was “significantly reduced detection of binding”.
